Values of other authors in PMC8781256, “The Influence of Fed State Lipolysis Inhibition on the Intraluminal Behaviour and Absorption of Fenofibrate from a Lipid-Based Formulation” (Pharmaceutics, 2022).

What was measured:
[1] = test system: human gastric lipase (HGL); design: method as in PMID 11408251; conditions: after intake of solid and liquid meals
[2] = test system: human pancreatic lipase (HPL); design: method as in PMID 11408251; conditions: after intake of solid and liquid meals
[3] = design: method as in PMID 8626884; conditions: acts locally in the GI tract

## CCCCCCCCCCC[C@@H](C[C@@H]1OC(=O)[C@H]1CCCCCC)OC(=O)[C@H](CC(C)C)NC=O [orlistat, tetrahydrolipstatin]
[1]
  HGL enzyme inhibition: 46.6–91.4%
[2]
  HPL enzyme inhibition: 51.2–82.6%
[3]
  systemic uptake: negligible

## CC(C)OC(=O)C(C)(C)Oc1ccc(C(=O)c2ccc(Cl)cc2)cc1 [fenofibrate]
other
  log P: 5.21
